In patent publication US20220280594A1, “APPLICATION OF POLYPEPTIDE OR DERIVATIVE THEREOF” (CHENGDU HUITAI BIOMEDICINE CO., LTD., priority 2019, published 2022):
Ends that are not written are not given here. PEG = not defined here

How the values were obtained:
Type in all cases: cell-based
[1] = system: human pancreatic cancer cells (PANC-1); experiment: scratch assay, migration of PANC-1 cells; details: PANC-1, 10 μM, 48 hours; control group 66.65 ± 3.37
Outline: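 PANC-1 monolayers were scratched, then cultured for 48 h with 10 μM test compound in 2% FBS medium, in three parallel wells per group against a PBS control. Migration rate (%) was calculated as (original minus current scratch width) / original width × 100, from imaged wells.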

[2] = system: human pancreatic cancer cells (PANC-1); experiment: transwell invasion assay, PANC-1 cells; details: PANC-1 transwell invasion, 10 μM, 24 hours; control group 727 ± 68
Outline: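 Serum-free PANC-1 cells were seeded in matrigel-coated upper chambers with complete medium below. After 4-5 hours at 37° C., peptide was added at 10 μM final. Following 24 hours, invaded cells on the lower membrane surface were fixed, crystal violet-stained, imaged and counted against untreated controls.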

[3] = system: human liver adenocarcinoma cells (SK-HEP-1); experiment: transwell invasion assay, SK-HEP-1 cells; details: SK-HEP-1 transwell invasion, 10 μM, 24 hours; control group 767 ± 91
Outline: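 Serum-free SK-HEP-1 cells were seeded in matrigel-coated upper chambers over complete medium. After 4-5 h, peptide was added to the upper chamber at 10 μM final. Following 24 h at 37° C., invaded cells were fixed, crystal violet-stained, imaged and counted.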

[4] = system: human liver cancer cells (HepG2); experiment: scratch assay, migration of HepG2 cells; details: HepG2, 10 μM, 48 hours; control group 71.01 ± 6.63
Outline: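 HepG2 monolayers scratched, then cultured 48 h in 2% FBS medium with test polypeptides at 10 μM versus PBS control, triplicate wells. Migration rate (%) computed from original versus current scratch width in images.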

[5] = system: human breast cancer cells (MDA-MB-231); experiment: scratch assay, migration of MDA-MB-231 cells; details: MDA-MB-231, 10 μM, 48 hours; control group 36.19 ± 5.15
Outline: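 MDA-MB-231 monolayers (1-2×10^5 cells/well) were scratched, then kept 48 h in medium with 2% FBS containing polypeptide at 10 μM, with a PBS control, in triplicate wells. Migration rate (%) was taken from scratch width: (original − current)/original ×100.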

[6] = system: human breast cancer cells (MCF-7); experiment: scratch assay, migration of MCF-7 cells; details: MCF-7, 10 μM, 48 hours; control group 30.97 ± 1.79
Outline: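 MCF-7 monolayers scratched, then cultured 48 hours in 2% FBS medium with test peptide at 10 μM versus PBS control, triplicate wells. Migration rate (%) = (original − current scratch width)/original width × 100, measured from images.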

[7] = system: human melanoma cells (A375); experiment: scratch assay, migration of A375 cells; details: A375, 10 μM, 48 hours; control group 44.03 ± 6.21
Outline: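 Monolayers scratched, washed with PBS and cultured 48 hours in 2% FBS medium with polypeptides N1-N54 at 10 μM or PBS control, three wells per group. Migration rate (%) = (original − current scratch width)/original width×100, from imaged scratch widths.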

[8] = system: human pharyngeal squamous-cell carcinoma cells (Fadu); experiment: scratch assay, migration of Fadu cells; details: 10 μM, 48 hours, control group 28.76 ± 4.08
Outline: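 Confluent Fadu monolayers scratched, then cultured 48 h with 10 μM polypeptide in medium with 2% FBS; PBS control, triplicate wells. Migration rate (%) = (original − current scratch width)/original width × 100, from ≥3 images per well.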

[9] = system: human colon cancer cells (HCT-116); experiment: scratch assay, migration of HCT-116 cells; details: HCT-116, 10 μM, 48 hours; control group 47.78 ± 6.07
Outline: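 Confluent HCT-116 monolayers were scratched, washed and cultured 48 h in 2% FBS medium with peptide at 10 μM versus PBS control, triplicate wells. Migration rate (%) = (original minus current scratch width)/original width × 100, from at least 3 images per well.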

[10] = system: human prostate cancer cells (22RV1); experiment: scratch assay, migration of 22RV1 cells; details: 22RV1, 10 μM, 48 hours; control group 25.41 ± 5.01
Outline: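 22RV1 monolayers (seeded 1-2×10^5 cells/well) were scratched, washed, then given 2% FBS medium with 10 μM polypeptide or PBS, triplicate wells, for 48 h. Migration rate (%) = (original − current scratch width)/original width ×100, from ≥3 images per well.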

In the case of “N37: SEQ ID NO: 1 with addition of two amino acids to the carboxyl terminal and PEG modification at the amino terminal ({PEG}-YRVRFLAKENVTQDAEDNCT; reading uncertain)”, the “Migration rate (%) (mean ± SD, P)” value [1] is reported as 18.23 ± 6.77,*** %, the “Number of cells (mean ± SD, P), invaded cells” value (“Number of cells (mean ± SD, P)” for short) [2] is reported as 359 ± 34,*** and the “Number of cells (mean ± SD, P)” value [3] is reported as 233 ± 13,****. For the same substance, the “Migration rate (%) (mean ± SD, P)” value [4] was 13.81 ± 6.14,*** %, the “Migration rate (%) (mean ± SD, P)” value [5] was 20.43 ± 3.23,* % and the “Migration rate (%) (mean ± SD, P)” value [6] was 8.64 ± 3.76,** %. For the same substance, the “Migration rate (%) (mean ± SD, P)” value [7] was 14.48 ± 2.51,*** %, the “Migration rate (%) (mean ± SD, P)” value [8] was 15.89 ± 3.88,* % and the “Migration rate (%) (mean ± SD, P)” value [9] was 4.99 ± 1.68,*** %. For the same substance, the “Migration rate (%) (mean ± SD, P)” value [10] was 4.86 ± 1.91,** %.

With “N21: SEQ ID NO: 1 with deletion of positions 1-5 and 15-18 and addition of one amino acid at the amino terminal (SLAKENVTQD)” the “Migration rate (%) (mean ± SD, P)” value [1] was 10.54 ± 9.03,*** %, the “Number of cells (mean ± SD, P)” value [2] was 269 ± 28,**** and the “Number of cells (mean ± SD, P)” value [3] was 356 ± 60,***. The “Migration rate (%) (mean ± SD, P)” value [4] was 15.00 ± 7.29,*** %, the “Migration rate (%) (mean ± SD, P)” value [5] was 19.95 ± 5.47,* % and the “Migration rate (%) (mean ± SD, P)” value [6] was 10.43 ± 2.18,** %. The “Migration rate (%) (mean ± SD, P)” value [7] was 8.29 ± 3.50,*** %, the “Migration rate (%) (mean ± SD, P)” value [8] was 16.87 ± 6.77,* % and the “Migration rate (%) (mean ± SD, P)” value [9] was 12.85 ± 3.12,*** %. For the same substance, the “Migration rate (%) (mean ± SD, P)” value [10] was 12.79 ± 3.06,* %.

For “N48: SEQ ID NO: 1 with A7R, deletion of position 11 and position 18, PEG modification at the carboxyl terminal (YRVRFLRKENTQDAED-{PEG}; reading uncertain)”, the “Migration rate (%) (mean ± SD, P)” value [1] was 20.60 ± 4.71,*** %, the “Number of cells (mean ± SD, P)” value [2] was 149 ± 12,**** and the “Number of cells (mean ± SD, P)” value [3] was 109 ± 10,****. The “Migration rate (%) (mean ± SD, P)” value [4] was 25.43 ± 5.00,*** %, the “Migration rate (%) (mean ± SD, P)” value [5] was 13.06 ± 3.2,** % and the “Migration rate (%) (mean ± SD, P)” value [6] was 15.62 ± 2.70,* %. The “Migration rate (%) (mean ± SD, P)” value [7] was 9.09 ± 2.23,*** %, the “Migration rate (%) (mean ± SD, P)” value [8] was 8.78 ± 4.34,*** % and the “Migration rate (%) (mean ± SD, P)” value [9] was 18.03 ± 4.62,** %. For the same substance, the “Migration rate (%) (mean ± SD, P)” value [10] was 5.61 ± 3.14,** %.

In the case of “N25: SEQ ID NO: 1 with substitution N18R and addition of two amino acids at the carboxyl terminal (YRVRFLAKENVTQDAEDRCT)”, the “Migration rate (%) (mean ± SD, P)” value [1] is reported as 25.36 ± 7.32,*** %, the “Number of cells (mean ± SD, P)” value [2] is reported as 247 ± 17,**** and the “Number of cells (mean ± SD, P)” value [3] is reported as 411 ± 30,***. The “Migration rate (%) (mean ± SD, P)” value [4] was 14.22 ± 7.10,*** %, the “Migration rate (%) (mean ± SD, P)” value [5] was 12.93 ± 4.38,** % and the “Migration rate (%) (mean ± SD, P)” value [6] was 9.16 ± 2.51,** %. For the same substance, the “Migration rate (%) (mean ± SD, P)” value [7] was 17.67 ± 2.41,** %, the “Migration rate (%) (mean ± SD, P)” value [8] was 9.89 ± 2.47,*** % and the “Migration rate (%) (mean ± SD, P)” value [9] was 18.70 ± 2.39,** %. The “Migration rate (%) (mean ± SD, P)” value [10] was 13.02 ± 2.27,* %.

In the case of “N51: SEQ ID NO: 1 with A15R, one amino acid added at each terminal, PEG modification at the amino terminal ({PEG}-FYRVRFLAKENVTQDREDNC; reading uncertain)”, the “Migration rate (%) (mean ± SD, P)” value [1] is reported as 20.85 ± 8.10,*** %, the “Number of cells (mean ± SD, P)” value [2] is reported as 282 ± 28,**** and the “Number of cells (mean ± SD, P)” value [3] is reported as 248 ± 39,****. The “Migration rate (%) (mean ± SD, P)” value [4] was 28.61 ± 5.89,** %, the “Migration rate (%) (mean ± SD, P)” value [5] was 14.5 ± 2.68,** % and the “Migration rate (%) (mean ± SD, P)” value [6] was 8.56 ± 4.18,** %. The “Migration rate (%) (mean ± SD, P)” value [7] was 17.96 ± 3.20,** %, the “Migration rate (%) (mean ± SD, P)” value [8] was 8.71 ± 1.79,*** % and the “Migration rate (%) (mean ± SD, P)” value [9] was 16.11 ± 3.20,** %. For the same substance, the “Migration rate (%) (mean ± SD, P)” value [10] was 5.23 ± 2.42,** %.
